Assay results reported in ChEMBL document CHEMBL4831555, “Identification and Validation of New Interleukin-2 Ligands Using DNA-Encoded Libraries” (J Med Chem, 2021).
The source made the active and inactive calls. The rule behind the calls is not given here.

Key:
[1] = Binding affinity to AGP (unknown origin) by fluorescence polarization assay; set-up: species or system Homo sapiens
[2] = target: T1, Interleukin-2 (Homo sapiens, UniProt P60568); assay: Binding affinity to L19-IL2 (unknown origin) by fluorescence polarization assay
T1 sequence (P60568 whole entry): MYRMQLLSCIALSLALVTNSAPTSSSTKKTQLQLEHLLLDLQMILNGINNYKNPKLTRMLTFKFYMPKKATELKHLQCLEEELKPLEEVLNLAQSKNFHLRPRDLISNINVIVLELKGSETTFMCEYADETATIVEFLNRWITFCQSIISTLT

[3] = target: Albumin (Homo sapiens, UniProt P02768); assay: Binding affinity to human serum albumin by fluorescence polarization assay
Albumin, sequence (P02768 whole entry): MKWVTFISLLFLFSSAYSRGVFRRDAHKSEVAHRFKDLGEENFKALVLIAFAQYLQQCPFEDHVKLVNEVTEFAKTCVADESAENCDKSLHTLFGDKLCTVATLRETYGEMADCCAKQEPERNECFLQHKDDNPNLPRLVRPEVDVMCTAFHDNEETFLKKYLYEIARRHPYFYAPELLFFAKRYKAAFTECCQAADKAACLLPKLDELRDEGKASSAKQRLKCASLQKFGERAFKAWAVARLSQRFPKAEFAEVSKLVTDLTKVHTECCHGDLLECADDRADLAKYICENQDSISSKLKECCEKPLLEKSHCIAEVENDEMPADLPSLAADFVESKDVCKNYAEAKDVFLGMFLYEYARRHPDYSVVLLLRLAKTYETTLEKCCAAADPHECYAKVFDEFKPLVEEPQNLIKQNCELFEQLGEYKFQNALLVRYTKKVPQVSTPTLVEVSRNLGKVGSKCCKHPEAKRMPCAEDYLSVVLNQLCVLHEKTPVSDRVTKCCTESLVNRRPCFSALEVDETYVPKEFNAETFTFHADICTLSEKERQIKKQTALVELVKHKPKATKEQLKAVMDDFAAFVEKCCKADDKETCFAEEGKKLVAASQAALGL

[4] = target: T1, Interleukin-2; assay: Binding affinity to IL2 (unknown origin) preincubated for 15 mins followed by NARA1 addition and measured after 1 hr in presence of NARA1 by ELISA
[5] = target: Interleukin-15 (Homo sapiens) (UniProt P40933); assay: Binding affinity to IL-15 (unknown origin)
Interleukin-15 (Homo sapiens), sequence (P40933 whole entry): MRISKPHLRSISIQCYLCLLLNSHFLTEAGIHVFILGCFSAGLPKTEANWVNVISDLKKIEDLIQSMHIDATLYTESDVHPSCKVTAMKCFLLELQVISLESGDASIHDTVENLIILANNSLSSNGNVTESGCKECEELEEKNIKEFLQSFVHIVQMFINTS

[6] = target: Tumor necrosis factor (Homo sapiens, UniProt P01375); assay: Binding affinity to TNF (unknown origin)
Tumor necrosis factor, sequence (P01375 whole entry): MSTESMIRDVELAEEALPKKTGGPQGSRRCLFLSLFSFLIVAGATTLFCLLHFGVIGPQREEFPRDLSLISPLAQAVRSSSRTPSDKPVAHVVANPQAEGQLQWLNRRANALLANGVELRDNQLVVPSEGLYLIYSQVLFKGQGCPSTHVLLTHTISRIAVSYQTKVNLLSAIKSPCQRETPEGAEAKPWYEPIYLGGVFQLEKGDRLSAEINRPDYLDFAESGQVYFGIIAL

[7] = Inhibition of IL2/IL-2Ralpha (unknown origin) interaction; set-up: species or system Homo sapiens
[8] = target: T1, Interleukin-2; assay: Binding affinity to IL2 (unknown origin) by SPR assay

| Kd [2] [nM] | Kd [3] [nM] | SMILES | also measured |
| --- | --- | --- | --- |
| 710 | 7200 | N=C(N)NCCC[C@@H](NC(=O)[C@@H](Cc1ccc(O)c(I)c1)NC(=O)c1cc2c(F)cccc2[nH]1)C(=O)O | Kd [1]: 4000 nM |
| 280 | 170 | O=C(N[C@@H](Cc1ccc(O)c(I)c1)C(=O)O)c1cc2ccc(F)cc2[nH]1 |  |
| 870 | 9600 | N=C(N)NCCC[C@@H](NC(=O)[C@H](Cc1ccc(O)c(I)c1)NC(=O)c1cc2c(F)cccc2[nH]1)C(=O)O | Kd [1]: 3000 nM |
| 330 | 270 | O=C(N[C@@H](Cc1ccc(O)c(I)c1)C(=O)O)c1cc2cc(F)ccc2[nH]1 |  |
| 250 | 20 | O=C(N[C@@H](Cc1cccc(I)c1)C(=O)O)c1cc2c(F)cccc2[nH]1 |  |
| 390 | 210 | O=C(N[C@@H](Cc1ccc(O)c(I)c1)C(=O)O)c1cc2cccc(F)c2[nH]1 |  |
| 340 | 2000 | N=C(N)NCCC[C@H](NC(=O)[C@H](Cc1ccc(O)c(I)c1)NC(=O)c1cc2c(F)cccc2[nH]1)C(=O)O | IC50 [4]: 3400 nM; Kd [1]: 3400 nM; Activity [5]: inactive; Kd [6]: 4400 nM |
| 920 | 1700 | O=C(N[C@@H](Cc1ccc(O)c(F)c1)C(=O)O)c1cc2c(F)cccc2[nH]1 |  |
| 1400 | 1500 | O=C(N[C@@H](Cc1ccc(O)cc1)C(=O)O)c1cc2c(F)cccc2[nH]1 |  |
| 750 | 30 | O=C(N[C@@H](Cc1ccc2ccccc2c1)C(=O)O)c1cc2c(F)cccc2[nH]1 |  |
| 420 | 390 | O=C(N[C@@H](Cc1ccc(O)c(I)c1)C(=O)O)c1cc2ccccc2[nH]1 |  |
| 1500 | 4000 | COC(=O)[C@H](Cc1ccc(C#Cc2ccccc2)cc1)NC(=O)C[C@@H]1CCCN(C(=N)N)C1 | Kd [1]: 4900 nM; IC50 [7]: 3000 nM; Kd [8]: 22000 nM |
| 720 | 310 | O=C(N[C@@H](Cc1ccc(O)c([N+](=O)[O-])c1)C(=O)O)c1cc2c(F)cccc2[nH]1 |  |
| 510 | 820 | O=C(N[C@@H](Cc1ccc(O)c(I)c1)C(=O)O)c1c[nH]c2cccc(F)c12 |  |
| 1200 | 3300 | N=C(N)NCCC[C@H](NC(=O)[C@@H](Cc1ccc(O)c(I)c1)NC(=O)c1cc2c(F)cccc2[nH]1)C(=O)O | Kd [1]: > 10000 nM |
| 640 | 70 | O=C(N[C@@H](Cc1ccc(I)cc1)C(=O)O)c1cc2c(F)cccc2[nH]1 |  |
|  |  | CC(C)C[C@@H](NC(=N)N)C(=O)NCC(=O)N1CCC(c2cc(-c3ccc(OCc4ccc(C(=O)O)o4)c(Cl)c3Cl)nn2C)CC1 | IC50 [7]: 60 nM |
| 210 | 220 | O=C(N[C@H](Cc1ccc(O)c(I)c1)C(=O)O)c1cc2c(F)cccc2[nH]1 |  |
| 590 | 580 | O=C(N[C@@H](Cc1ccc(O)c(Cl)c1)C(=O)O)c1cc2c(F)cccc2[nH]1 |  |
| 2200 | 1000 | O=C(N[C@@H](Cc1ccc(O)c(I)c1)C(=O)O)c1cc2c(F)cccc2o1 |  |
| 1300 | 430 | COc1ccc(C[C@H](NC(=O)c2cc3c(F)cccc3[nH]2)C(=O)O)cc1 |  |
| 300 | 780 | O=C(N[C@@H](Cc1ccc(O)c(Br)c1)C(=O)O)c1cc2c(F)cccc2[nH]1 |  |
| 250 | 290 | O=C(N[C@@H](Cc1ccc(O)c(I)c1)C(=O)O)c1cc2c(F)cccc2[nH]1 | Kd [6]: 5100 nM |
